Test results: patent publication US20120114636A1, “LOW MOLECULAR WEIGHT CYCLIN E (LMW-E) AS A BIOMARKER FOR PERSONALIZATION OF CANCER THERAPIES” (The Board of Regents of the University of Texas System, priority 2009, published 2012)

Experiments:
Format in all cases: cell-based, human
[1] = test system: MCF-7/Ac1 cells; assay: Cell growth by cell counting, AD-stimulated cells; conditions: Homo sapiens, MCF7, 72 h, with 25 nM AD, 3 days, read-out: inhibition of AD-induced growth
Method: Cell growth. The effects of the aromatase inhibitors on MCF7/Ac1 cells growth were examined by counting the cells at the indicated time. The cells were detached from their flask using trypsin and counted using a Coulter counter machine.
To examine the effects of the three different aromatase inhibitors on the proliferation of MCF-7/Ac1 cells, cells were cultured in estrogen deprived, charcoal stripped serum media (CSSM). The response of the cells to 25 nM of androstenedione (AD) alone or AD plus one of the 3 aromatase inhibitors letrozole (FIG. 22A), anastrozole (FIG. 22B), and exemestane (FIG. 22C) was measured after 3 days of treatment. Cells maintained in CSSM were used as controls.
FIGS. 22A-22C show the effect of aromatase inhibitor treatment on proliferative response and cell cycle distribution of MCF-7/Ac1 cells. Cells were cultured in IMEM with 10% charcoal-stripped serum medium (CSSM) without phenol red and with 600 μg/ml of G418 for 4 days before plating. Cells (100,000) were seeded in 100 mm dishes and, 24 hrs later, were exposed for 3 days to the specific treatment. […] CSSM, untreated cells cultured in charcoal-stripped serum medium without phenol red and with 600 μg/ml of G418.

[2] = test system: MCF-7/Ac1 cells; assay: Cell number of adenovirus-infected cells (LacZ, cyclin EL, T1, T2); conditions: for inhibition at 1 µM: Homo sapiens, MCF7, 1 μM letrozole, read-out: inhibition of AD-induced growth
Text: (§1) LMW cyclin E, but not full-length cyclin E, overexpressing MCF-7/Ac1 cells partially override the letrozole inhibition of AD-induced S-phase entry and AD-induced CDK2 protein levels. Since overexpression of LMW cyclin E deregulates the G1 to S transition, the inventors interrogated the role of full-length and LMW cyclin E in letrozole response. To this end, the inventors examined the sensitivity of cyclin E overexpressing MCF-7/Ac1 cells to the growth inhibitory effect of letrozole using adenoviruses to overexpress full-length and LMW cyclin E (FIGS. 24A-24D). MCF-7/Ac1 cells were cultured in charcoal stripped serum media (CSSM) for 4 days before infecting them with 4000 m.o.i. of either LacZ, full-length cyclin E (cyclin EL) or LMW cyclin E (cyclin E-T1 and cyclin E-T2). Twenty-four hours later, cells were left either untreated, treated with 25 nM AD alone, or treated with 25 nM AD plus 1 μM letrozole for an additional 3 days (FIGS. 24A-24B). Following the treatment, cells were enumerated or subjected to flow cytometry analysis.
(§2) MCF-7/Ac1 cells were cultured in IMEM with 10% charcoal-stripped serum medium (CSSM) without phenol red and with 600 μg/ml of G418 for 4 days before plating. Triplicate wells of 6-well plates were then infected with the indicated adenoviruses (at 4000 m.o.i.) 24 hours before drug treatment. Cells were then left untreated (E2W, estrogen withdrawal) or treated with 25 nM AD (AD) or treated with 25 nM AD and 1 μM letrozole (AD+Let) and collected 3 days later for cell number. Cell growth is expressed as the percentage of the cells compared with the control cells (25 nM AD treated cells). […] MCF-7/Ac1 cells were treated as described in A, and collected for flow cytometry analysis. Histograms represent the S-phase fraction expressed as the percentage of the cells in S-phase compared with the control cells (25 nM AD treated cells). […] The same cell lysates as in A and B were subjected to western blot analysis (50 μg of protein) with cyclin E and CDK2 antibodies. The bar graph represents the densitometric values of the phosphorylated CDK2 bands. […] Left, MCF-7/Ac1 cells were cultured in IMEM with 10% charcoal-stripped serum medium (CSSM) without phenol red and with 600 μg/ml of G418 for 4 days before plating. Cells were then infected with the indicated adenoviruses (at 4000 m.o.i.) 24 hours before drug treatment. Cells were then treated with 25 nM AD and 1 μM letrozole and collected 3 days later for cell number. […] Columns, mean of two to three experiments, each in triplicates; bars, S.D.
To directly address this question, MCF-7/Ac1 cells were cultured in charcoal stripped serum media (CSSM) for 4 days before adding medium with no virus or with 4000 m.o.i. of either LacZ, or LMW cyclin E (cyclin E-T1) adenoviruses. 24 hours later, cells were left untreated, treated with 25 nM AD alone, or treated with 25 nM AD plus 1 μM letrozole for 3 days (FIG. 24D). The AD-induced growth of MCF-7/Ac1 cells was inhibited by letrozole by 51% in uninfected cells and by 58% in LacZ infected cells while the growth of cyclin E-T1 infected cells was inhibited by only 20% (FIG. 24D, left).

[3] = test system: MCF-7/Ac1 cells; assay: S-phase fraction by flow cytometry of adenovirus-infected cells; conditions: 1 μM letrozole with 25 nM AD
Method: Flow cytometry analysis. Cells were pelleted and resuspended in 1.5 ml of PBS, then fixed in 3.5 ml of 95% ethanol overnight at −20° C. After being washed, the pellets were resuspended in a solution of PBS containing 10 μg/ml propidium iodide, 20 μg/ml RNase A, 0.5% Tween 20, and 0.5% BSA and incubated at 37° C. for 30 min. The profiles of cells in the G0-G1, S, and G2-M phases of the cell cycle were analyzed at the M. D. Anderson Cancer Center Cytometry Core Facility on a FACS Caliber machine equipped with Cellquest or ModFit software.
as §1, §2

[4] = test system: CDK2 kinase activity in MCF-7/Ac1 cells; assay: CDK2 kinase assay in LacZ or cyclin E-T1 adenovirus-infected cells; conditions: 1 μM letrozole
Method: MCF-7/Ac1 cells were cultured in IMEM with 10% charcoal-stripped serum medium (CSSM) without phenol red and with 600 μg/ml of G418 for 4 days before plating. Plates were then infected with LacZ (4000 m.o.i) or increasing concentration of cyclin E-T1 adenoviruses 24 hours before drug treatment. Cells were then left untreated (E2W, estrogen withdrawal) or treated with 25 nM AD (AD) or treated with 25 nM AD and 1 μM letrozole (AD+Let) and collected 3 days later for CDK2 kinase activity. CDK2 kinase assays were performed by immunoprecipitating equal amounts of cell lysate (250 μg) with monoclonal antibodies to CDK2 (D12, sc-6248) coupled to protein G beads, using histone H1 as substrate. The bar graph represents the densitometric values of the phosphorylated histone H1 substrate.

N#Cc1ccc(C(c2ccc(C#N)cc2)n2cncn2)cc1 [letrozole]
inhibition at 0.1 µM ([1]; 0.1 μM): 37.2%
inhibition at 1 µM ([1]; 1 μM): 63.5%
inhibition of AD-induced growth ([2]; 1 μM letrozole, cyclin EL, T1, and T2 infected cells, FIG. 24A): no significant growth inhibition
inhibition at 1 µM ([2]; LacZ infected cells, FIG. 24A): 56.1%
inhibition at 1 µM ([2]; LacZ infected cells, FIG. 24D): 58%
inhibition at 1 µM ([2]; cyclin E-T1 infected cells, FIG. 24D): 20%
inhibition at 1 µM ([2]; uninfected cells, FIG. 24A): 40.8%
inhibition at 1 µM ([2]; uninfected cells, FIG. 24D): 51%
decrease in number of cells in S phase ([3]; LacZ-infected cells): 37%
decrease in number of cells in S phase ([3]; cyclin E-T1-infected cells): 16%
decrease in number of cells in S phase ([3]; cyclin E-T2-infected cells): 21%
decrease in number of cells in S phase ([3]; cyclin EL-infected cells): 42%
decrease in number of cells in S phase ([3]; uninfected cells): 62%
block of CDK2 kinase activity ([4]; LMW cyclin E (T1) expressing cells, any m.o.i): cannot block
block of AD-induced increase in CDK2 kinase activity ([4]; LacZ expressing cells): completely blocks
